Measurements as given in ChEMBL document CHEMBL5512671, “Structure-Based Optimization of Novel Sterol 24-C-Methyltransferase Inhibitors for the Treatment of Candida albicans Infections” (J Med Chem, 2024).
Calls of active or inactive are those of the source. The rule behind the calls is not given here.

Tests used:
[Candida] auris [1] = Antifungal activity against Candida auris CBS12774 assessed as inhibition of fungal growth incubated for 24 hrs by CLSI protocol based broth microdilution method; type: functional; conditions: Candidozyma auris
[2] = molecular target: T1, Sterol 24-C-methyltransferase (Candida albicans (strain SC5314 / ATCC MYA-2876) (Yeast), UniProt O74198); assay: Inhibition of recombinant Candida albicans SC5314 Erg6 methyltransferase activity using zymosterol as substrate incubated for 15 mins followed by substrate addition by liquid scintillation counter analysis
T1 sequence (O74198 whole entry): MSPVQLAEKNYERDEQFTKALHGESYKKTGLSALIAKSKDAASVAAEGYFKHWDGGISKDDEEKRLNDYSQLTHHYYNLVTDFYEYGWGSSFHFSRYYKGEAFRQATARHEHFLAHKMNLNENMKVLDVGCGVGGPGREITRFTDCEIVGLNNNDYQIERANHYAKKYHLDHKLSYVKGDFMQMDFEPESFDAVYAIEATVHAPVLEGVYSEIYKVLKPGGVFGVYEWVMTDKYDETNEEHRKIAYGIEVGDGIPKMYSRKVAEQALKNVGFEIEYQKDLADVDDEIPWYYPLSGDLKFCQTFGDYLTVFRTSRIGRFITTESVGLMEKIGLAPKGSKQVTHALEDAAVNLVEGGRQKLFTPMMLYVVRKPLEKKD

Candida albicans [3] = assay: Downregulation of UME6 expression in Candida albicans SC5314 at 1 ug/ml incubated for 6 hrs by qPCR analysis; type: functional; conditions: dose 1.0 µg/ml
Candida albicans [4] = assay: Antifungal activity against Candida albicans SC5314 assessed as inhibition of hyphae growth measured after 5 days cultured under solid spider agar medium by microscopy based analysis; type: functional, organism-based; conditions: dose 0.25-1 µg/ml, time 5.0 day
Candida albicans [5] = assay: Antifungal activity against Candida albicans SC5314 infected in Balb/C mouse candidiasis model assessed as filamentation defect at 0.5 % administered topically and measured after 72 hrs in presence of terbinafine by PAS staining based analysis; type: functional, organism-based
[6] = molecular target: T2, Sterol 24-C-methyltransferase (Candida albicans (strain SC5314 / ATCC MYA-2876) (Yeast)) (UniProt O74198); assay: Inhibition of Candida albicans SC5314 Erg6 assessed as fold increase in zymosterol content at 1 ug/ml incubated for 12 hrs by GC-MS analysis; conditions: dose 1.0 µg/ml
T2 sequence (whole entry): T1 sequence (O74198 whole entry)

Nakaseomyces glabratus [7] = assay: Antifungal activity against Candida glabrata CG2 assessed as effect on cell size at 1 ug/ml measured after 6 hrs by microscopy based analysis; type: functional, organism-based; conditions: dose 1.0 µg/ml
Candida albicans [8] = assay: Fungistatic activity against Candida albicans SC5314 at 1 ug/ml incubated for 3 hrs in presence of terbinafine by SYTOX staining based analysis; type: functional, organism-based; conditions: dose 1.0 µg/ml
Nakaseomyces glabratus [9] = assay: Antifungal activity against Candida glabrata CG2 assessed as effect on cell structure at 1 ug/ml measured after 6 hrs by microscopy based analysis; type: functional, organism-based; conditions: dose 1.0 µg/ml
Candida albicans [10] = assay: Antifungal activity against Candida albicans SC5314 assessed as inhibition of hyphae growth measured after 6 hrs cultured under RPMI1640 medium/5% serum by microscopy based analysis; type: functional, organism-based; conditions: dose 0.25-1 µg/ml
Candida parapsilosis [11] = assay: Antifungal activity against Candida parapsilosis CP1 assessed as effect on cell size at 1 ug/ml measured after 6 hrs by microscopy based analysis; type: functional, organism-based; conditions: dose 1.0 µg/ml
Candida parapsilosis [12] = assay: Antifungal activity against Candida parapsilosis CP1 assessed as inhibition of hyphae formation at 1 ug/ml measured after 6 hrs by microscopy based analysis; type: functional, organism-based; conditions: dose 1.0 µg/ml
Candida albicans [13] = assay: Antifungal activity against Candida albicans CAI4/pBA1-ERG6 assessed as inhibition of hyphae growth incubated for 24 hrs by CLSI protocol based broth microdilution method; type: functional, organism-based
Candida albicans [14] = assay: Downregulation of ECE1 expression in Candida albicans SC5314 at 1 ug/ml incubated for 6 hrs by qPCR analysis; type: functional; conditions: dose 1.0 µg/ml
Candida albicans [15] = assay: Antifungal activity against Candida albicans SC5314 infected in Balb/C mouse candidiasis model assessed as decrease in skin fungal burden by measuring fold change at 0.5 % administered topically and measured after 72 hrs in presence of terbinafine; type: functional
Candida albicans [16] = assay: Fungistatic activity against Candida albicans SC5314 at 1 ug/ml incubated for 3 hrs in presence of tridemorph by SYTOX staining based analysis; type: functional, organism-based; conditions: dose 1.0 µg/ml
Candida albicans [17] = assay: Antibiofilm activity against Candida albicans CA14-TDH3-GFP at 0.5 to 2 ug/ml incubated for 24 hrs by XTT reduction assay; type: functional, organism-based; conditions: dose 0.5-2 µg/ml
[18] = Cytotoxicity against human HUVEC cells incubated for 48 hrs by CCK-8 method; type: toxicity, cell-based
Candida albicans [19] = assay: Antifungal activity against Candida albicans SC5314 infected in Balb/C mouse candidiasis model assessed as filamentation defect at 0.5 % administered topically and measured after 72 hrs in presence of tridemorph by PAS staining based analysis; type: functional, organism-based
Candida albicans [20] = assay: Antifungal activity against Candida albicans SC5314 assessed as inhibition of hyphae growth measured after 5 days cultured under solid spider agar medium and 10mM GlcNAc by microscopy based analysis; type: functional, organism-based; conditions: dose 0.25-1 µg/ml, time 5.0 day
Candida albicans [21] = assay: Synergistic antifungal activity against Candida albicans SC5314 assessed as fractional inhibitory concentration index incubated for 24 hrs in presence of terbinafine by broth microdilution checkerboard assay; type: functional
[Candida] auris [22] = Antifungal activity against Candida auris CBS12774 assessed as effect on cell structure at 1 ug/ml measured after 6 hrs by microscopy based analysis; type: functional, organism-based; conditions: Candidozyma auris, dose 1.0 µg/ml
Candida parapsilosis [23] = assay: Antifungal activity against Candida parapsilosis CP1 assessed as inhibition of fungal growth incubated for 24 hrs by CLSI protocol based broth microdilution method; type: functional; conditions: Lodderomyces parapsilosis
Candida albicans [24] = assay: Synergistic antifungal activity against Candida albicans SC5314 assessed as inhibition of fungal growth incubated for 24 hrs in presence of tridemorph by broth microdilution checkerboard assay; type: functional
Candida albicans [25] = assay: Antifungal activity against Candida albicans SC5314 assessed as inhibition of hyphae growth measured after 5 days cultured under YPD embedded agar medium and 10mM GlcNAc by microscopy based analysis; type: functional, organism-based; conditions: dose 0.25-1 µg/ml, time 5.0 day
Candida albicans [26] = assay: Antifungal activity against Candida albicans SC5314 infected in Balb/C mouse candidiasis model assessed as filamentation defect at 0.5 % administered topically and measured after 72 hrs by PAS staining based analysis; type: functional, organism-based
Candida albicans [27] = assay: Downregulation of RAS1 gene level in Candida albicans SC5314 at 1 ug/ml incubated for 6 hrs by qPCR analysis; type: functional; conditions: dose 1.0 µg/ml
Candida albicans [28] = assay: Antifungal activity against Candida albicans SC5314 assessed as inhibition of hyphae growth incubated for 24 hrs by CLSI protocol based broth microdilution method; type: functional
[Candida] auris [29] = Antifungal activity against Candida auris CBS12774 assessed as inhibition of hyphae formation at 1 ug/ml measured after 6 hrs by microscopy based analysis; type: functional, organism-based; conditions: Candidozyma auris, dose 1.0 µg/ml
Candida albicans [30] = assay: Antifungal activity against Candida albicans SC5314 infected in Balb/C mouse candidiasis model assessed as decrease in skin fungal burden by measuring fold change at 0.5 % administered topically and measured after 72 hrs in presence of tridemorph; type: functional
Candida albicans [31] = assay: Antifungal activity against Candida albicans SC5314 assessed as inhibition of hyphae growth measured after 6 hrs cultured under RPMI1640 medium by microscopy based analysis; type: functional, organism-based; conditions: dose 0.25-1 µg/ml
Candida albicans [32] = assay: Antifungal activity against Candida albicans SC5314 infected in Balb/C mouse candidiasis model assessed as appearance of inflammatory infiltrates at 0.5 % administered topically and measured after 72 hrs by H and E staining based analysis; type: functional, organism-based
[Candida] auris [33] = Antifungal activity against Candida auris CBS12774 assessed as effect on cell size at 1 ug/ml measured after 6 hrs by microscopy based analysis; type: functional, organism-based; conditions: Candidozyma auris, dose 1.0 µg/ml

Q: With Cc1c(-n2c(-c3ccc4ccccc4c3)cs/c2=N\c2ccccc2)c(=O)n(-c2ccccc2)n1C as the compound, how does the MIC ([Candida] auris [1]) read?
A: Its MIC is over 128 µg/mL.

Q: What about the IC50 [2] of the same compound?
A: Its IC50 is 0.273 µM.

Q: What about the Activity (Candida albicans [3]) of the same compound?
A: Its Activity is “Active”.

Q: And the Activity (Candida albicans [4])?
A: Its Activity is “Dose-Dependent Effect”.

Q: And the Activity (Candida albicans [5])?
A: The Activity was “Active”.

Q: And the fold change (FC) [6]?
A: The fold change (FC) was 11.

Q: And the Activity (Nakaseomyces glabratus [7])?
A: Its Activity is “inactive”.

Q: And the Activity (Candida albicans [8])?
A: Its Activity is “Active”.

Q: What about the Activity (Nakaseomyces glabratus [9]) of the same compound?
A: The Activity was “inactive”.

Q: What about the Activity (Candida albicans [10]) of the same compound?
A: The Activity was “Dose-Dependent Effect”.

Q: And the Activity (Candida parapsilosis [11])?
A: The Activity was “inactive”.

Q: What about the Activity (Candida parapsilosis [12]) of the same compound?
A: Its Activity is “Active”.

Q: What about the Activity (Candida albicans [13]) of the same compound?
A: The Activity was “Active”.

Q: What about the Activity (Candida albicans [14]) of the same compound?
A: Its Activity is “Active”.

Q: What about the “fold change (FC)” value (Candida albicans [15]) of the same compound?
A: Its value is 59.11.

Q: And the Activity (Candida albicans [16])?
A: The Activity was “Active”.

Q: And the Activity (Candida albicans [17])?
A: The Activity was “Active”.

Q: And the EC50 at 48 h [18]?
A: Its EC50 at 48 h is over 50 µg/mL.

Q: What about the Activity (Candida albicans [19]) of the same compound?
A: Its Activity is “Active”.

Q: What about the Activity (Candida albicans [20]) of the same compound?
A: The Activity was “Dose-Dependent Effect”.

Q: What about the “fractional inhibitory concentration index (FICI)” value (Candida albicans [21]) of the same compound?
A: The value was under 0.1.

Q: And the Activity ([Candida] auris [22])?
A: The Activity was “inactive”.

Q: What about the MIC (Candida parapsilosis [23]) of the same compound?
A: The MIC was over 128 µg/mL.

Q: And the MIC80 (Candida albicans [24])?
A: Its MIC80 is 1 µg/mL.

Q: What about the Activity (Candida albicans [25]) of the same compound?
A: The Activity was “Dose-Dependent Effect”.

Q: And the Activity (Candida albicans [26])?
A: The Activity was “Active”.

Q: What about the Activity (Candida albicans [27]) of the same compound?
A: Its Activity is “Active”.

Q: And the MIC50 (Candida albicans [28])?
A: Its MIC50 is over 128 µg/mL.

Q: What about the Activity ([Candida] auris [29]) of the same compound?
A: Its Activity is “Active”.

Q: What about the “fold change (FC)” value (Candida albicans [30]) of the same compound?
A: Its value is 60.26.

Q: And the Activity (Candida albicans [31])?
A: Its Activity is “Dose-Dependent Effect”.

Q: And the Activity (Candida albicans [32])?
A: The Activity was “Active”.

Q: And the Activity ([Candida] auris [33])?
A: Its Activity is “inactive”.
